From ChEMBL document CHEMBL5715954, “Silencing c-Myc translation as a therapeutic strategy through targeting PI3Kδ and CK1ε in hematological malignancies” (Blood, 2017)

Key:
Set-up in all cases: scale not given: the % may be the effect or the level left
[1] = molecular target: RAC-beta serine/threonine-protein kinase (Homo sapiens) (UniProt P31751); test: Inhibition of human AKT2 assessed as enzyme activity at 1 uM using KGSGSGRPRTSSFAEG as substrate preincubated for 20 mins followed by [gamma-33P]-ATP addition and measured after 120 mins by radiometric Hot-SpotSM Kinase assay relative to control
[2] = molecular target: Cyclin-Y/Cyclin-dependent kinase 16 (Homo sapiens) (UniProt Q00536+Q8ND76); test: Inhibition of human CDK16/cyclin Y assessed as enzyme activity at 1 uM using RB Protein as substrate preincubated for 20 mins followed by [gamma-33P]-ATP addition and measured after 120 mins by radiometric Hot-SpotSM Kinase assay relative to control; assay type: protein-complex assay
[3] = molecular target: CDK7/Cyclin H/MNAT1 (Homo sapiens) (UniProt P51946+P50613+P51948); test: Inhibition of human CDK7/Cyclin H/MNAT1 assessed as enzyme activity at 1 uM using myelin basic protein as substrate preincubated for 20 mins followed by [gamma-33P]-ATP addition and measured after 120 mins by radiometric Hot-SpotSM Kinase assay relative to control; assay type: protein-complex assay
[4] = molecular target: CDK9/cyclin T1 (Homo sapiens) (UniProt O60563+P50750); test: Inhibition of human CDK9/cyclin T1 assessed as enzyme activity at 1 uM using KTFCGTPEYLAPEVRREPRILSEEEQEMFRDFDYIADWC as substrate preincubated for 20 mins followed by [gamma-33P]-ATP addition and measured after 120 mins by radiometric Hot-SpotSM Kinase assay relative to control; assay type: protein-complex assay
[5] = molecular target: Insulin receptor (Homo sapiens) (UniProt P06213); test: Inhibition of human IR assessed as enzyme activity at 1 uM using poly[Glu:Tyr] (4:1) as substrate preincubated for 20 mins followed by [gamma-33P]-ATP addition and measured after 120 mins by radiometric Hot-SpotSM Kinase assay relative to control
[6] = molecular target: Insulin receptor-related protein (Homo sapiens) (UniProt P14616); test: Inhibition of human IRR assessed as enzyme activity at 1 uM using myelin basic protein as substrate preincubated for 20 mins followed by [gamma-33P]-ATP addition and measured after 120 mins by radiometric Hot-SpotSM Kinase assay relative to control
[7] = molecular target: T1, Serine/threonine-protein kinase Nek1 (Homo sapiens) (UniProt Q96PY6); test: Inhibition of human NEK1 assessed as enzyme activity at 1 uM using myelin basic protein as substrate preincubated for 20 mins followed by [gamma-33P]-ATP addition and measured after 120 mins by radiometric Hot-SpotSM Kinase assay relative to control
T1 sequence (whole entry): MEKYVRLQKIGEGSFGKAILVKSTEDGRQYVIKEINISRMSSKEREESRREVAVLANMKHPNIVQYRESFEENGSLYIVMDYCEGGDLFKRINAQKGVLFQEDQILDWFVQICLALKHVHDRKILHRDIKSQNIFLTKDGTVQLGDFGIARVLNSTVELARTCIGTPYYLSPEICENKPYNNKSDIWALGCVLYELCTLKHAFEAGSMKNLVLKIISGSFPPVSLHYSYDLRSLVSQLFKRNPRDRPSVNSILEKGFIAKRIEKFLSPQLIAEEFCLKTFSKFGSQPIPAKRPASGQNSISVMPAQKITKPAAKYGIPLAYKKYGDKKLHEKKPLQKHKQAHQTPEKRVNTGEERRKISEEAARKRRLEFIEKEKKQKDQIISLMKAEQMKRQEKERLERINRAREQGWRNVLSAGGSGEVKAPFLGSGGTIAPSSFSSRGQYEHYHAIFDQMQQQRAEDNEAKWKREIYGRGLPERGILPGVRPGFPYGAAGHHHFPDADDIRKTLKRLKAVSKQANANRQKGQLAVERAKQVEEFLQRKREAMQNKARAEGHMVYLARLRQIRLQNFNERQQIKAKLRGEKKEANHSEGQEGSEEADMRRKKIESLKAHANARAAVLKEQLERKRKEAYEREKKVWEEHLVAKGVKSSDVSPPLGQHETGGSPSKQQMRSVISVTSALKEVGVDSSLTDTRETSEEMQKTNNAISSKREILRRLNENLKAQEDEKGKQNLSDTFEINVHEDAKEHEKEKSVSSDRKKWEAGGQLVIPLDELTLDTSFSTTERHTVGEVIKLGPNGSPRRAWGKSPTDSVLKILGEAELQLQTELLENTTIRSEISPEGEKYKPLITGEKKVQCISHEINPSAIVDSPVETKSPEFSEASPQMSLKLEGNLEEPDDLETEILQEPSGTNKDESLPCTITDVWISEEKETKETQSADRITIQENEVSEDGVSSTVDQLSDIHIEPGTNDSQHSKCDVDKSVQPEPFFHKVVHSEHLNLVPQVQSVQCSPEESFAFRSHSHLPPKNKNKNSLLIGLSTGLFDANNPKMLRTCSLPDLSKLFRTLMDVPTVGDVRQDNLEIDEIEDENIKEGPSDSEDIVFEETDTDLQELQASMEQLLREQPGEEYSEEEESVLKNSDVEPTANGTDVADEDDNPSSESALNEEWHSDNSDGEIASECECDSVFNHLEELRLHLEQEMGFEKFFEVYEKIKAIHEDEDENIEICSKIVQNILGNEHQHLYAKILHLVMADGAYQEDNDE

[8] = molecular target: T2, Protein kinase C iota type (Homo sapiens) (UniProt P41743); test: Inhibition of human PKCiota assessed as enzyme activity at 1 uM using ERMRPRKRQGSVRRRV as substrate preincubated for 20 mins followed by [gamma-33P]-ATP addition and measured after 120 mins by radiometric Hot-SpotSM Kinase assay relative to control
T2 sequence (whole entry): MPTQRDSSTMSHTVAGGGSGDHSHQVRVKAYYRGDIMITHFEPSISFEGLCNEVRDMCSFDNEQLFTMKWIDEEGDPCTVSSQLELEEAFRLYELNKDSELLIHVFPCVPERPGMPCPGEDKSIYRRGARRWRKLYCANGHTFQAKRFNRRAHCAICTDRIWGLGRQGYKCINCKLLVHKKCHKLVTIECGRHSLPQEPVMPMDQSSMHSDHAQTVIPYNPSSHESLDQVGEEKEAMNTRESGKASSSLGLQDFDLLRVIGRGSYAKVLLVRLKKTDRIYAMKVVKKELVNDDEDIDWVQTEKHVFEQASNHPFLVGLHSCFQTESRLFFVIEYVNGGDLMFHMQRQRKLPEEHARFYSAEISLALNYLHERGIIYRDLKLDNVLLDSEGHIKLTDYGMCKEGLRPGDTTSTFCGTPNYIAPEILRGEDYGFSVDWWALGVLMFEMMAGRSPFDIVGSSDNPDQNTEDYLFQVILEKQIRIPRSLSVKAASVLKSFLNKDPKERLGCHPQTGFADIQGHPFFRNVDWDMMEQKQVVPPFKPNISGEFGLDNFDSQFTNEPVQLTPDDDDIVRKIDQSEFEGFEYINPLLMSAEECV

Chain of Insulin receptor-related protein (Homo sapiens) (P14616 27-742 limits assumed): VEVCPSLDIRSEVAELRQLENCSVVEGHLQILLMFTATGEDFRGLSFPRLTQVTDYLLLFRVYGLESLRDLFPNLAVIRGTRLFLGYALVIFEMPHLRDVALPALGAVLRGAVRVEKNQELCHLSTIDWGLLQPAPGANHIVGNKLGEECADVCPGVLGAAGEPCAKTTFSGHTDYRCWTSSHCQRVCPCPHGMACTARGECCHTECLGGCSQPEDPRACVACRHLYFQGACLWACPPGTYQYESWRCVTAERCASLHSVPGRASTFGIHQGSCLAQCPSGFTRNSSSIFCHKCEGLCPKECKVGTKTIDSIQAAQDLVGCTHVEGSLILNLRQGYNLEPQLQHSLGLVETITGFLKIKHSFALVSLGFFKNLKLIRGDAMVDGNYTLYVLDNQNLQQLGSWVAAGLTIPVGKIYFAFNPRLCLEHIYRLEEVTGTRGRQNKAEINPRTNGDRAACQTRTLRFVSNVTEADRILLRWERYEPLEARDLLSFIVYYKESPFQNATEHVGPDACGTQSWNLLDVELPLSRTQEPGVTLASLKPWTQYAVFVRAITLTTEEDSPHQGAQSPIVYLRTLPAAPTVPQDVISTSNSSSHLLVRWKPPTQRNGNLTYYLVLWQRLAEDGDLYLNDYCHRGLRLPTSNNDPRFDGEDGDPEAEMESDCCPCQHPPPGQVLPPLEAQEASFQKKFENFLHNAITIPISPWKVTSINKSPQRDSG
Chain of Insulin receptor-related protein (Homo sapiens) (P14616 747-1297 limits assumed): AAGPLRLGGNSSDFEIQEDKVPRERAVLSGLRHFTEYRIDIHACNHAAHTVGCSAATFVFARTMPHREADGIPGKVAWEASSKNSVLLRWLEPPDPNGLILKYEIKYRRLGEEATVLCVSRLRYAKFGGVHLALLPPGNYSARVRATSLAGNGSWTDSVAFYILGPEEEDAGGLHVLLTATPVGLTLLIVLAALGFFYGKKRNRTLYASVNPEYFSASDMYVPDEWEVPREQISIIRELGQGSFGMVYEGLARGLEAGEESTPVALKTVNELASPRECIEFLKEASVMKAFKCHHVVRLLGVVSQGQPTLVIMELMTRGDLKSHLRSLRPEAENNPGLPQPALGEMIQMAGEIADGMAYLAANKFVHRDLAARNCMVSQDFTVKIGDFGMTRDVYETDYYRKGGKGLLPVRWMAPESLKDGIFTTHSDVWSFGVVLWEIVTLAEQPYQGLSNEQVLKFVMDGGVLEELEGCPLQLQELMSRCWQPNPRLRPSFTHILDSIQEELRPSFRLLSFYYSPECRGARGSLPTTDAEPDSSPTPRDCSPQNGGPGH
Chain of Insulin receptor (Homo sapiens) (P06213 28-758 limits assumed): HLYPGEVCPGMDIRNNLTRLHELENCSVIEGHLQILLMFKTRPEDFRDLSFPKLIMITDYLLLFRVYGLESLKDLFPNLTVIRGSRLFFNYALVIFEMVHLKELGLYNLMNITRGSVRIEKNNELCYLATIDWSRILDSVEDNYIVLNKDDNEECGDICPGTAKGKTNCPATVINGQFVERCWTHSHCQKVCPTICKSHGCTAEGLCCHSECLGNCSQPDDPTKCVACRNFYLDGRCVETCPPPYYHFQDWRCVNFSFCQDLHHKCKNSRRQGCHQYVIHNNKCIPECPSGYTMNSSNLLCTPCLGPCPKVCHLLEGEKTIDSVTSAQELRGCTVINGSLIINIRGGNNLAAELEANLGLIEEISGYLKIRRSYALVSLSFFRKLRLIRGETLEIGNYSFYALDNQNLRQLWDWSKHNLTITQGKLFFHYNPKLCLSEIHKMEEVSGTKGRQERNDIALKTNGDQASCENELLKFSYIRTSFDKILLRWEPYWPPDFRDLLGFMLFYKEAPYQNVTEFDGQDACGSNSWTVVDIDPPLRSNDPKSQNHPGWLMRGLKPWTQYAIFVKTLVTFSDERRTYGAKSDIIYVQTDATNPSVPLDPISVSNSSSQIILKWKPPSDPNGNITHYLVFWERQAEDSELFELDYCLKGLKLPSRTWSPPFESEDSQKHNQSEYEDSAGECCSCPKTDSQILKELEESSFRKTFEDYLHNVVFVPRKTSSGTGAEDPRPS
Chain of Insulin receptor (Homo sapiens) (P06213 763-1382 limits assumed): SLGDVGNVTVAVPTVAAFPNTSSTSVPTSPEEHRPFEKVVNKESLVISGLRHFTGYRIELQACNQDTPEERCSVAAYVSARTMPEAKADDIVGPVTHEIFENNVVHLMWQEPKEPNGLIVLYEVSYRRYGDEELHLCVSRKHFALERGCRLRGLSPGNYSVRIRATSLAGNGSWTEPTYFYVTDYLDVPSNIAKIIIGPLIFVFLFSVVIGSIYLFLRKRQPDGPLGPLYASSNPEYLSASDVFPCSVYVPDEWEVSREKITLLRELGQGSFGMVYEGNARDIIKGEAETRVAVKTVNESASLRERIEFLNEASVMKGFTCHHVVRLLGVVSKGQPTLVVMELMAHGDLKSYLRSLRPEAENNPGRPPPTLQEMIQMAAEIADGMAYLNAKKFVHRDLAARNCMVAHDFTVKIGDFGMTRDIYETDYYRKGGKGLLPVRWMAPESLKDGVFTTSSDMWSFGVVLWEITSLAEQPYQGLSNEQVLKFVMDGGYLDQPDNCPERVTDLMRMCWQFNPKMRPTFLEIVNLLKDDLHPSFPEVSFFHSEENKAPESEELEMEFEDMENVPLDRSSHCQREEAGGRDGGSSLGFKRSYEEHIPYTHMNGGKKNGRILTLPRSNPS
Chain of RAC-beta serine/threonine-protein kinase (Homo sapiens) (P31751 whole entry): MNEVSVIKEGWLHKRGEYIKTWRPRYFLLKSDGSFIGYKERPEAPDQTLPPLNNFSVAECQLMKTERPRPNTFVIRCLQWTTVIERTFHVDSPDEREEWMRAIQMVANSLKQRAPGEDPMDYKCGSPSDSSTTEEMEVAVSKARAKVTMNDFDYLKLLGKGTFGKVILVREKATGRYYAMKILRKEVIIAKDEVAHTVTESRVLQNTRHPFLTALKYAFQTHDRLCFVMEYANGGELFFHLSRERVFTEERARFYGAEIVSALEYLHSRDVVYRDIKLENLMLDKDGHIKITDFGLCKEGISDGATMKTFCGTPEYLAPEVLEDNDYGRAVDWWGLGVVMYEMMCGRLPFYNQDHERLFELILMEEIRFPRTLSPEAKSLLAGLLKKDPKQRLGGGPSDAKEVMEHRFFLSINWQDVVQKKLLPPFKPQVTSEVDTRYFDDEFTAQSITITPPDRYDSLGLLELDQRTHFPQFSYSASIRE

`C[C@H](Nc1ncnc2nc[nH]c12)c1cc2cccc(Cl)c2c(=O)n1-c1ccccc1` showed an Activity [1] of 92%, an Activity [2] of 97.7% and an Activity [3] of 95.2%. The Activity [4] was 96.2%, the Activity [5] was 98.2% and the Activity [6] was 95.9%. The Activity [7] was 87% and the Activity [8] was 98.2%.

For `CC[C@H](Nc1ncnc2[nH]cnc12)c1nc2cccc(F)c2c(=O)n1-c1ccccc1`, the Activity [1] was 91.6%, the Activity [2] was 96.5% and the Activity [3] was 98.1%. For the same compound, the Activity [4] was 89.5%, the Activity [5] was 99.5% and the Activity [6] was 93.9%. The Activity [7] was 93.5% and the Activity [8] was 94%.

With `CC(C)Oc1ccc(-c2nn([C@@H](C)c3oc4ccc(F)cc4c(=O)c3-c3cccc(F)c3)c3ncnc(N)c23)cc1F` [UMBRALISIB] the Activity [1] was 90.8%, the Activity [2] was 98.5% and the Activity [3] was 101%. It also gave an Activity [4] of 98.5%, an Activity [5] of 99.5% and an Activity [6] of 96.4%. For the same compound, the Activity [7] was 105% and the Activity [8] was 95.7%.
